According to patent US20090118350A1, “Biomarkers for Identifying Efficacy of Tegaserod in Patients with Chronic Constipation” (priority 2005, published 2009):

Tested on: patients with chronic constipation
Test: Clinical trial, primary efficacy: mean increase of 1 or more CSBM/week over baseline after 4 weeks of treatment (responders), by subgroup and genotype
Type: in vivo, human
Details: 6-mg bid vs placebo, 4 weeks
Procedure: Introduction. A clinical trial was performed to evaluate the efficacy of tegaserod (Zelmac®/Zelnorm™) at 6 mg bid (12 mg/day) or 2 mg bid (4 mg/day) vs. placebo by measuring the number of complete spontaneous bowel movements (CSBM) during the first 4 weeks of treatment. Secondary objectives included evaluating the number of CSBM during the entire 12-week treatment period, bowel habits, laxative use, and safety and tolerability issues. The clinical trial design consisted of a 2-week baseline period without medication, a 12-week, randomized, double-blind, placebo-controlled treatment period, and a 4-week withdrawal period without study medication. As part of the clinical trial, DNA was collected from patients at screening for pharmacogenetic analysis to evaluate genetic polymorphisms relating to drug targets and disease aetiology.
Samples. A total 1348 patients were randomized as the intent-to-treat (ITT) population. Blood samples from these patients were collected at the time of patient screening and DNA was extracted using the PUREGENE™ DNA Isolation Kit (D-50K). Of these, samples from 738 randomized patients had good quality genotype data for at least half of the 55 SNPs evaluated.
Clinical assessments. […] The primary efficacy endpoint evaluated was the increase of 1 or more CSBM/week over baseline after 4 weeks of treatment. A secondary endpoint evaluated in this genotyping study was RESP12, the increase of 1 of more CSBM/week over baseline after 12 weeks of treatment. Patients were classified as responders if they met these criteria and had completed at least 7 days of treatment. Additional secondary efficacy assessments were evaluated based on the weekly diary assessments, such as bothersome constipation, bothersome abdominal pain, and satisfaction with bowel habits at the end of the 12-week treatment period (using the baseline value as a co-variant for analysis).
Genotyping. A total of 61 polymorphisms in 23 candidate genes were selected for analysis. Genotyping was performed using the TaqMan® technology for most of the assays, while a few were performed in-house using the Third Wave Technologies Invader Assay technique (see TABLE 2 for assay IDs for all evaluated SNPs). Of the 61 SNPs genotyped, 55 yielded good quality, polymorphic genotypes for use in further evaluation.
Statistical analysis. Statistical analysis was performed using SAS version 8.2 (The SAS Institute, Cary, N.C., USA). Analysis methods included Fisher's Exact tests, analysis of Covariance (ANCOVA), logistic regression, and Mantel-Haenzel tests to determine odds ratios and 95% confidence intervals, with significance established at p<0.05. Calculation of linkage disequilibrium was performed using the GOLD (graphical overview of linkage disequilibrium) method described by Abecasis & Cookson, Bioinformatics 16: 182-3 (2000).
Demographic comparisons. TABLE 3 presents the demographic breakdown of the patients in the overall clinical study and those included in this genotype analysis. Distributions were similar between the genotype population and the total patient population. […] Based on these findings, it was decided to limit analysis to the Caucasian population, which accounted for nearly 90% of all patients, to prevent a confounding effect of race on subsequent genotype analyses. Furthermore, the analysis was also limited to those intent-to-treat patients that were treated with tegaserod or placebo for at least 7 days (total of 635 patients).
Comparison of overall response rates. TABLE 4 presents the overall response for the primary efficacy endpoint (a mean increase in 1 or more CSBM/week over baseline after 4 weeks) for tegaserod 6-mg bid compared with placebo for both the overall patient population and the subgroup of patients for which we had genotype data (all races and Caucasians only). […]

[H]/N=C(/NCCCCC)N/N=C/c1c[nH]c2ccc(OC)cc12 [tegaserod, Tegaserod]
Odds Ratio (All Caucasians (ITT, >=7 days), Age <65, M + F): 2.7
Odds Ratio (All Caucasians (ITT, >=7 days), Age >=65, M + F): 1.2
Odds Ratio (All Caucasians (ITT, >=7 days), Age All, Female): 2.6
Odds Ratio (All Caucasians (ITT, >=7 days), Age All, M + F): 2.5
Odds Ratio (All Caucasians (ITT, >=7 days), Age All, Male): 1.8
Odds Ratio (All genotyped (ITT, >=7 days), Age <65, M + F): 2.8
Odds Ratio (All genotyped (ITT, >=7 days), Age >=65, M + F): 2.4
Odds Ratio (All genotyped (ITT, >=7 days), Age All, Female): 2.7
Odds Ratio (All genotyped (ITT, >=7 days), Age All, M + F): 2.7
Odds Ratio (All genotyped (ITT, >=7 days), Age All, Male): 2.5
Odds Ratio (All patients (ITT, >=7 days), Age <65, M + F): 2.5
Odds Ratio (All patients (ITT, >=7 days), Age >=65, M + F): 1.4
Odds Ratio (All patients (ITT, >=7 days), Age All, Female): 2.4
Odds Ratio (All patients (ITT, >=7 days), Age All, M + F): 2.3
Odds Ratio (All patients (ITT, >=7 days), Age All, Male): 1.9
Odds Ratio (Caucasians genotyped (ITT, >=7 days), Age <65, M + F, all genotypes): 2.8
Odds Ratio (Caucasians genotyped (ITT, >=7 days), Age >=65, M + F, all genotypes): 2.1
Odds Ratio (Caucasians genotyped (ITT, >=7 days), Age All, Female, all genotypes): 2.7
Odds Ratio (Caucasians genotyped (ITT, >=7 days), Age All, M + F, all genotypes): 2.6
Odds Ratio (Caucasians genotyped (ITT, >=7 days), Age All, Male, all genotypes): 2.5
Odds Ratio (ITT Caucasians >=7 days, 0 of 14 SNPs): 1.1
Odds Ratio (ITT Caucasians >=7 days, >=1 of 14 SNPs): 4.1
Odds Ratio (ITT Caucasians >=7 days, AQP3 (PG ID 1838) genotype CC): 2.4
Odds Ratio (ITT Caucasians >=7 days, AQP3 (PG ID 1838) genotype CG): 2.6
Odds Ratio (ITT Caucasians >=7 days, AQP3 (PG ID 1838) genotype GG): 11.3
Odds Ratio (ITT Caucasians >=7 days, Female (All ages), 0 of the 12 SNPs): 1.5
Odds Ratio (ITT Caucasians >=7 days, Female (All ages), 1-12 of the 12 SNPs): 4.7
Odds Ratio (ITT Caucasians >=7 days, HTR3B (PG ID 3755) genotype AA): 2.7
Odds Ratio (ITT Caucasians >=7 days, HTR3B (PG ID 3755) genotype AC): 2.0
Odds Ratio (ITT Caucasians >=7 days, HTR3B (PG ID 3755) genotype CC): 8.0
Odds Ratio (ITT Caucasians >=7 days, HTR4 (PG ID 1746) genotype CC): 2.7
Odds Ratio (ITT Caucasians >=7 days, HTR4 (PG ID 1746) genotype CT): 2.2
Odds Ratio (ITT Caucasians >=7 days, HTR4 (PG ID 1746) genotype TT): 8.4
Odds Ratio (ITT Caucasians >=7 days, HTR4 (PG ID 3743) genotype AA): 3.0
Odds Ratio (ITT Caucasians >=7 days, HTR4 (PG ID 3743) genotype AC): 2.8
Odds Ratio (ITT Caucasians >=7 days, HTR4 (PG ID 3743) genotype CC): 14.0
Odds Ratio (ITT Caucasians >=7 days, HTR4 (PG ID 3747) genotype AA): 3.0
Odds Ratio (ITT Caucasians >=7 days, HTR4 (PG ID 3747) genotype AT): 2.2
Odds Ratio (ITT Caucasians >=7 days, HTR4 (PG ID 3747) genotype TT): 5.8
Odds Ratio (ITT Caucasians >=7 days, HTR4 (PG ID 3753) genotype CC): 2.7
Odds Ratio (ITT Caucasians >=7 days, HTR4 (PG ID 3753) genotype CT): 2.1
Odds Ratio (ITT Caucasians >=7 days, HTR4 (PG ID 3753) genotype TT): 7.0
Odds Ratio (ITT Caucasians >=7 days, HTR4 (PG ID 3754) genotype AA): 3.2
Odds Ratio (ITT Caucasians >=7 days, HTR4 (PG ID 3754) genotype AT): 1.9
Odds Ratio (ITT Caucasians >=7 days, HTR4 (PG ID 3754) genotype TT): 4.9
Odds Ratio (ITT Caucasians >=7 days, HTR4 (PG ID 3756) genotype AA): 2.8
Odds Ratio (ITT Caucasians >=7 days, HTR4 (PG ID 3756) genotype AC): 2.0
Odds Ratio (ITT Caucasians >=7 days, HTR4 (PG ID 3756) genotype CC): 8.1
Odds Ratio (ITT Caucasians >=7 days, M + F (<65), 0 of the 12 SNPs): 1.5
Odds Ratio (ITT Caucasians >=7 days, M + F (<65), 1-12 of the 12 SNPs): 5.3
Odds Ratio (ITT Caucasians >=7 days, M + F (>=65), 0 of the 12 SNPs): 0.3
Odds Ratio (ITT Caucasians >=7 days, M + F (>=65), 1-12 of the 12 SNPs): 7.0
Odds Ratio (ITT Caucasians >=7 days, M + F (All ages), 0 of the 12 high responder SNPs): 1.3
Odds Ratio (ITT Caucasians >=7 days, M + F (All ages), 1-12 of the 12 high responder SNPs): 5.4
Odds Ratio (ITT Caucasians >=7 days, MLN (PG ID 1783) genotype CC): 2.5
Odds Ratio (ITT Caucasians >=7 days, MLN (PG ID 1783) genotype CT): 2.0
Odds Ratio (ITT Caucasians >=7 days, MLN (PG ID 1783) genotype TT): 7.2
Odds Ratio (ITT Caucasians >=7 days, Male (All ages), 0 of the 12 SNPs): 0.3
Odds Ratio (ITT Caucasians >=7 days, Male (All ages), 1-12 of the 12 SNPs): 22.5
Odds Ratio (ITT Caucasians >=7 days, SCNN1A (PG ID 3806) genotype GG): 5.0
Odds Ratio (ITT Caucasians >=7 days, SCNN1A (PG ID 3806) genotype GT): 2.5
Odds Ratio (ITT Caucasians >=7 days, SCNN1A (PG ID 3806) genotype TT): 1.9
Odds Ratio (ITT Caucasians >=7 days, SLC12A2 (PG ID 1842) genotype AA): 12.0
Odds Ratio (ITT Caucasians >=7 days, SLC12A2 (PG ID 1842) genotype AG): 1.1
Odds Ratio (ITT Caucasians >=7 days, SLC12A2 (PG ID 1842) genotype GG): 2.9
Odds Ratio (ITT Caucasians >=7 days, SLC12A2 (PG ID 3801) genotype CC): 17.0
Odds Ratio (ITT Caucasians >=7 days, SLC12A2 (PG ID 3801) genotype CT): 0.8
Odds Ratio (ITT Caucasians >=7 days, SLC12A2 (PG ID 3801) genotype TT): 3.8
Odds Ratio (ITT Caucasians >=7 days, TPH1 (PG ID 1756) genotype GG): 5.4
Odds Ratio (ITT Caucasians >=7 days, TPH1 (PG ID 1756) genotype GT): 2.4
Odds Ratio (ITT Caucasians >=7 days, TPH1 (PG ID 1756) genotype TT): 1.5
Odds Ratio (ITT Caucasians >=7 days, TPH1 (PG ID 3784) genotype CC): 1.6
Odds Ratio (ITT Caucasians >=7 days, TPH1 (PG ID 3784) genotype CT): 2.4
Odds Ratio (ITT Caucasians >=7 days, TPH1 (PG ID 3784) genotype TT): 5.5
Odds Ratio (high responder genotypes of the twelve SNPs in six genes): ≥ 5
